US8969363B2, “Heterocyclic compounds and uses thereof” (Infinity Pharmaceuticals, Inc., priority 2011, dated 2015)
Where two headings read alike, the source gives them in different places.

Columns and labels:
NZB/W F1 mice = details: prophylactic and therapeutic model; cited from earlier work
[1] = system: phospho-AKT in RAW 264.7 cells (PI3Kγ); test: PI3Kγ selective cellular assay: phospho-AKT in C5a stimulated RAW 264.7 cells; type: cell-based; details: Mus musculus
Excerpt: A compound's ability in selectively inhibiting PI3Kγ can be assessed using RAW264.7 macrophages. Briefly, serum-starved PAW264.7 cells are stimulated with a known GPCR agonist C5a. (See, e.g., Camps et al., Nature Medicine (2005) 11(9): 936-943). Cells can be treated with test compounds prior to, simultaneously with, or subsequent to the stimulation by C5a. RAW 264.7 cells respond to the complement component fragment C5a through activation of the C5a receptor, and the C5a receptor activates macrophages and induces cell migration. Test compounds' ability to inhibit C5a-mediated AKT phosphorylation is indicative of selective inhibition of PI3Kγ. Thus, by monitoring the reduction of phospho-AKT in stimulated RAW 264.7 cells (using for example, phospho-AKT antibodies), a compound's potential efficacy in selectively inhibiting PI3Kγ can be assessed.
Certain compounds provided herein (e.g., Compounds I-21, I-86, I-87, I-91, I-106, and III-13) were tested in RAW 264.7 cell model using procedures as described above.

PI3Kα = biological target: T1, PI3Kα (Homo sapiens, UniProt P42336); test: PI3 Kinase HTRF assay, PI3Kα; type: biochemical; details: 10 μM PIP2, 10 μM ATP; 'Greater than 10 μM' and 'Greater than 1 μM to 10 μM'; read-out: PI3K α IC50
T1 construct: purchased Millipore Corporation 14-602-K
T1 sequence (P42336 whole entry): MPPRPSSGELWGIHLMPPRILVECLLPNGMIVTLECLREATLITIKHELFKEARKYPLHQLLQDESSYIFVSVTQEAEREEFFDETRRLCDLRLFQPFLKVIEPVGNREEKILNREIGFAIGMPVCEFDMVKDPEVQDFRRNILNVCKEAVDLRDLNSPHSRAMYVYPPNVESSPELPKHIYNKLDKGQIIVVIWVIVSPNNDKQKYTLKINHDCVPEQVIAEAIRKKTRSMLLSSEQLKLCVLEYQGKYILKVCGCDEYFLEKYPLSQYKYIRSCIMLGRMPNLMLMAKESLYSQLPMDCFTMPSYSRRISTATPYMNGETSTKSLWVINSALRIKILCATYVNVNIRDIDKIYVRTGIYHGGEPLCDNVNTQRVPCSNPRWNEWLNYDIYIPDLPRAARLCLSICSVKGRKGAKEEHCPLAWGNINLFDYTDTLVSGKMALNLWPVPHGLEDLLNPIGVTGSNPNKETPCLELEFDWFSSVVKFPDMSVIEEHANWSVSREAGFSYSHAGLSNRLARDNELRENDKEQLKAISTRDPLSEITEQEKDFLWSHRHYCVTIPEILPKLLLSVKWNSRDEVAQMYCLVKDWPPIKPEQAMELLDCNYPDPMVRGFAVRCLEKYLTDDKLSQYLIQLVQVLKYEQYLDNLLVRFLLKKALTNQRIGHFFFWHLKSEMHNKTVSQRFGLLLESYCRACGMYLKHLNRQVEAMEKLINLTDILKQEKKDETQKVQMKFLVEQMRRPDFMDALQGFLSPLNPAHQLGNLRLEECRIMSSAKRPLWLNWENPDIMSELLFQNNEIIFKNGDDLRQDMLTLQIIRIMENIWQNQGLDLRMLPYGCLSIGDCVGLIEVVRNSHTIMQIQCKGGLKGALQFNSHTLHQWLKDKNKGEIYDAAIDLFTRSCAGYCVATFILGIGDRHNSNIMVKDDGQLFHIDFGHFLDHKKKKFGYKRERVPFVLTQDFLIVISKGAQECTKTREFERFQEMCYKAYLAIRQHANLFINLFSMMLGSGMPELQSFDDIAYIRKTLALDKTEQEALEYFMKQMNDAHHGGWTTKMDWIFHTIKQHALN
T1 sequence (P27986 whole entry partner): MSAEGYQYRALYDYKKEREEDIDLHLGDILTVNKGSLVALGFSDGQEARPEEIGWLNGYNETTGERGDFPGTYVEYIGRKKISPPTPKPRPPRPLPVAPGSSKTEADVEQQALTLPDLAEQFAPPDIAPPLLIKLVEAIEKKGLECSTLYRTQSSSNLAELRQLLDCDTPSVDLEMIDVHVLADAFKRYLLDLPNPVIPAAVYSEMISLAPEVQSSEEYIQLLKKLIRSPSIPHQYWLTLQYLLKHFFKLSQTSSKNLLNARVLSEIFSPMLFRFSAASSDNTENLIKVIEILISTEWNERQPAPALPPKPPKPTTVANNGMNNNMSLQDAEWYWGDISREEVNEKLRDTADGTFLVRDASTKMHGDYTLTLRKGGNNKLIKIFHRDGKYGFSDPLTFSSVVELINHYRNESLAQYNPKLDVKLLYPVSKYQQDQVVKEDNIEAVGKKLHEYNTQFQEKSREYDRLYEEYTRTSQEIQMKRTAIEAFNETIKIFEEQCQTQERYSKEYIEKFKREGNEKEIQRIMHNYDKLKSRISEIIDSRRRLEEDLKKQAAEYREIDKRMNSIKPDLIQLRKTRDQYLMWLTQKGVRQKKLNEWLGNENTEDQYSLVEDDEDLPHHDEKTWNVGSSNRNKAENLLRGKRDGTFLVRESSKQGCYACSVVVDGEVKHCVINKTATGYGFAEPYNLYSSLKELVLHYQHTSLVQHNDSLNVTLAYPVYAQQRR
Summary of the method: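 Recombinant PI3K converts 10 μM PIP2 with 10 μM ATP, 1 h at room temperature after 15 min compound preincubation, 2% DMSO. PIP3 detected by competitive HTRF with GRP1 PH domain; IC50 by nonlinear regression over 12 points, 20 μM to 0.1 nM.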

[2] = system: phospho-AKT in 786-O cells (PI3Kβ); test: PI3Kβ selective cellular assay: phospho-AKT in 786-O cells; type: cell-based; details: Homo sapiens, 786-0, read-out: IC50 for phospho-AKT, 786-O cell model
Excerpt: A compound's ability in selectively inhibiting PI3Kβ can be assessed using 786-O cells, i.e., human kidney carcinoma cell line. Briefly, 786-O cells, in which PI3Kβ is constitutively active, can be treated with test compounds. Test compounds' ability to inhibit AKT phosphorylation in 786-O cells, therefore, is indicative of selective inhibition of PI3Kβ. Thus, by monitoring the reduction of phospho-AKT in 786-O cells (using for example, phospho-AKT antibodies), a compound's potential efficacy in selectively inhibiting PI3Kβ can be assessed.
Certain compounds provided herein (e.g., Compounds I-21, I-86, I-87, I-91, and III-13) were tested in 786-O cell model using procedures as described above.

PI3Kβ = test: PI3 Kinase HTRF assay, PI3Kβ; type: biochemical, human; details: 10 μM PIP2, 10 μM ATP; 'Greater than 10 μM' and 'Greater than 1 μM to 10 μM'; read-out: PI3K β IC50
PI3Kβ, sequence (Q8BTI9 whole entry, the tested form may be a part): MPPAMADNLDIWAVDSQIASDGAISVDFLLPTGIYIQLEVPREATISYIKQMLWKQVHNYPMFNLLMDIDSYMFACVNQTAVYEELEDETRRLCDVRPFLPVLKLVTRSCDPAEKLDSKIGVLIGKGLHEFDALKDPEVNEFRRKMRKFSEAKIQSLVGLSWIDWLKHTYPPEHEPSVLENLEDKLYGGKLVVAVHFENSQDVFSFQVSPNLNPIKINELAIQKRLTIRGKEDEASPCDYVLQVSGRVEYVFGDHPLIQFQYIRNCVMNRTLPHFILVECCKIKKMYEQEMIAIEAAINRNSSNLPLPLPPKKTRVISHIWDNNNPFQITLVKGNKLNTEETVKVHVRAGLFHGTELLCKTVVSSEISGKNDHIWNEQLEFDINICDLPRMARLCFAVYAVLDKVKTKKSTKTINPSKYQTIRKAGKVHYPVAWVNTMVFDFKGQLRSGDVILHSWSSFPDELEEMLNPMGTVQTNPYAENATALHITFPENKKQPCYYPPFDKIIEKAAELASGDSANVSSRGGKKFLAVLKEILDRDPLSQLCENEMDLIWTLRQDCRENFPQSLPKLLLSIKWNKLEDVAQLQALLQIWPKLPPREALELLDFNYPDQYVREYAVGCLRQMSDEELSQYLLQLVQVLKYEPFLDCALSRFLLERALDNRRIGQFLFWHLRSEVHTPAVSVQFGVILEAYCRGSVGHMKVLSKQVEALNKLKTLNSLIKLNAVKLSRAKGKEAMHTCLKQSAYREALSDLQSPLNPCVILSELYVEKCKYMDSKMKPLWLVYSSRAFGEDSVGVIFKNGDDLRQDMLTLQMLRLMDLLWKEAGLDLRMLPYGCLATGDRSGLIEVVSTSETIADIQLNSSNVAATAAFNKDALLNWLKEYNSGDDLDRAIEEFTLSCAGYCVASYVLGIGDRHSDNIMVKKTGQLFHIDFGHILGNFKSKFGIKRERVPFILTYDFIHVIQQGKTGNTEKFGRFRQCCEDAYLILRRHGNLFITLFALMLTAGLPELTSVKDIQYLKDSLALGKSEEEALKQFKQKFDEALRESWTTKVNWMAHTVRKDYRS
Summary of the method: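 Recombinant PI3Kβ converting PIP2 (10 μM) to PIP3 with 10 μM ATP; PIP3 detected by competitive HTRF displacement of biotin-PIP3/GST-GRP1 PH domain complex. Emission ratios converted to % inhibition; IC50 by nonlinear regression.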

[3] = system: phospho-AKT in RAJI cells (PI3Kδ); test: PI3Kδ selective cellular assay: phospho-AKT in anti-human IgM stimulated RAJI cells; type: cell-based; details: read-out: IC50 for phospho-AKT, RAJI cell model
Excerpt: A compound's ability in selectively inhibiting PI3Kδ can be assessed using RAJI cells, i.e., B lymphocyte cells derived from lymphoma patients. Briefly, serum-starved RAJI cells are stimulated with anti-human IgM, thereby causing signaling through the B-cell receptors, as described in, for example, He et al., Leukemia Research (2009) 33: 798-802. B-cell receptor signaling is important for the activation, differentiation, and survival of B cells and certain B-cell derived cancers. Reduction of phospho-AKT is indicative of compounds that may inhibit B-cell proliferation and function in certain diseases. By monitoring the reduction of phospho-AKT in stimulated RAJI cells (using for example, phospho-AKT antibodies), a compound's potential efficacy in selectively inhibiting PI3Kδ can be assessed.
Certain compounds provided herein (e.g., Compounds I-21, I-86, I-87, I-91, I-106, and III-13) were tested in RAJI cell model using procedures as described above.

Balb/c splenic B cells = test: B cell activation and proliferation assay (Alamar Blue); type: cell-based; details: Mus musculus, 'Less than 100 nM'
Summary of the method: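 Proliferation was read as Alamar Blue reduction (5 h, fluorescence 560/590 nm) after 72 h of stimulation at 37 °C. The stimulus was either LPS (10 μg/ml in cocktail) or donkey anti-mouse F(ab′)2 (5 μg/ml) with recombinant mouse IL4 (2 ng/ml). Purified Balb/c splenic B cells, 50,000 per well, had compound for 30 min beforehand (0.2% DMSO final).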

[4] = system: phospho-AKT in SKOV-3 cells (PI3Kα); test: PI3Kα selective cellular assay: phospho-AKT in SKOV-3 cells; type: cell-based; details: Homo sapiens
Excerpt: A compound's ability in selectively inhibiting PI3Kα can be assessed using SKOV-3 cells, i.e., human ovarian carcinoma cell line. Briefly, SKOV-3 cells, in which mutant PI3Kα is constitutively active, can be treated with test compounds. Test compounds' ability to inhibit AKT phosphorylation in SKOV-3 cells, therefore, is indicative of selective inhibition of PI3Kα. Thus, by monitoring the reduction of phospho-AKT in SKOV-3 cells (using for example, phospho-AKT antibodies), a compound's potential efficacy in selectively inhibiting PI3Kα can be assessed.
Certain compounds provided herein (e.g., Compounds I-21, I-86, I-87, I-91, and III-13) were tested in SKOV-3 cell model using procedures as described above.

B6.Sle1z.Sle3z model = details: cited from earlier work
[5] = PBS pH 7.4, 37° C., 24 hours; cited from earlier work
[6] = system: p190 transduced leukemic cells in mice; details: about 70 mg/kg twice daily; cited from earlier work
[7] = control compounds, 5 μM; cited from earlier work
[8] = RAW264.7, read-out: IC50 for phospho-AKT, RAW 264.7 cell model
[9] = SK-OV-3, read-out: IC50 for phospho-AKT, SKOV-3 cell model

| SMILES | IC50 [1, 8] [nM] | IC50 (PI3Kα) [nM] | IC50 [2] [nM] | IC50 (PI3Kβ) [nM] | IC50 [3] [nM] | EC50 (Balb/c splenic B cells) [nM] | IC50 [4, 9] [nM] | other results |
| --- | --- | --- | --- | --- | --- | --- | --- | --- |
| CC(C)C[C@H](NC(=O)[C@H](Cc1ccccc1)NC(=O)c1cnccn1)B(O)O [Bortezimib, bortezomib] |  |  |  |  |  |  |  | disease in the NZB/W model (NZB/W F1 mice): effective at blocking disease in the NZB/W model |
| COc1ncc(-c2cccc3nc([C@H](C)Nc4nc(N)nc5cccnc45)n(-c4ccccc4)c(=O)c23)cn1 [Compound I-86] | < 100 | 1000 to 10000 | 1000 to 10000 | > 10000 | < 100 | < 100 | 1000 to 10000 |  |
| C[C@H](Nc1nc(N)nc2cccnc12)c1nc2cccc(-c3cnn(C)c3)c2c(=O)n1-c1ccccc1 [Compound I-87] | < 100 | 1000 to 10000 | 1000 to 10000 | > 10000 | < 100 | < 100 |  | IC50 ([4]; SK-OV-3, range with units in value, read-out: IC50 for phospho-AKT, SKOV-3 cell model): 100 to 1000 nM |
| Cc1ncc(-c2cccc3nc([C@H](C)Nc4nc(N)nc5cccnc45)n(-c4ccccc4)c(=O)c23)cn1 [Compound I-91, (S)-2-(1-((2-aminopyrido[3,2-d]pyrimidin-4-yl)amino)ethyl)-5-(2-methylpyrimidin-5-yl)-3-phenylquinazolin-4(3H)-one] | < 100 | 1000 to 10000 | 1000 to 10000 | > 10000 | < 100 | < 100 | 1000 to 10000 |  |
| C[C@H](Nc1ncnc2[nH]cnc12)c1cc2cccc(C(F)(F)F)c2c(=O)n1-c1cccc(F)c1 [III-13] |  | 1000 to 10000 | 1000 to 10000 | 1000 to 10000 | < 100 | < 100 | 1000 to 10000 | IC50 ([1]; RAW264.7, range with units in value, read-out: IC50 for phospho-AKT, RAW 264.7 cell model): 100 to 1000 nM |
| CO[C@H]1C[C@@H]2CC[C@@H](C)[C@@](O)(O2)C(=O)C(=O)N2CCCC[C@H]2C(=O)O[C@H]([C@H](C)C[C@@H]2CC[C@@H](OCCO)[C@H](OC)C2)CC(=O)[C@H](C)/C=C(\C)[C@@H](O)[C@@H](OC)C(=O)[C@H](C)C[C@H](C)/C=C/C=C/C=C/1C [RAD001, everolimus] |  |  |  |  |  |  |  | lupus symptoms (B6.Sle1z.Sle3z model): ameliorate lupus symptoms |
| O=C(O)CCCc1ccc(N(CCCl)CCCl)cc1 [chlorambucil] |  |  |  |  |  |  |  | chemical stability [5]: largely hydrolyzed over the course of 24 hours |
| Cc1ccc(NC(=O)c2ccc(CN3CCN(C)CC3)cc2)cc1Nc1nccc(-c2cccnc2)n1 [imatinib] |  |  |  |  |  |  |  | leukemogenesis [6]: delay but not cure leukemogenesis |
| CC(C)[N+](C)(CCOC(=O)C1c2ccccc2Oc2ccccc21)C(C)C [propantheline] |  |  |  |  |  |  |  | plasma stability [7]: intermediate plasma stability |
| CCCOc1cc(N)ccc1C(=O)OCCN(CC)CC [propoxycaine] |  |  |  |  |  |  |  | plasma stability [7]: low plasma stability |
